Source: patent publication US11458083B2, “Cosmetic and/or dermatological composition containing a merocyanine derivative comprising specific polar groups consisting of hydroxyl- and ether-functionalities” (L'OREAL, priority 2011, dated 2022)

Legend:
Format in all cases: physicochemical
[1] = UV shielding properties: UV spectra in ethanol; parameters: Absorption maximum λmax: unit not given here; details: UV spectrum in ethanol
Excerpt: The UV shielding properties of the merocyanine derivatives are investigated by measuring their UV spectra in ethanol. In the following table the investigated absorption maxima (Amax) together with the corresponding A^1%1cm values are listed.

[2] = Storage (chemical) stability in water/ethanol solution, UPLC; details: 0.5% in water/ethanol 1/1, 45° C.
Protocol: The chemical stability of the compounds can be assessed in a water/ethanol solution 1/1 with compounds solubilized at 0.5%.
(§1) Once the solution prepared, it is placed in an oven at 45° C. for 2 months for stability and 1 h at 60° C. for acidic stress. Then the solution is aliquoted (0.005% w/v in H2O/ACN 50/50) for liquid chromatography analysis to check disappearance or not.
(§2) UPLC Acquity (Waters) with diod array detector eλ (Waters).
(§3) Column: Acquity HSS T3 (Waters), length: 50 mm, Inner diameter: 2.1 mm, particles diameter 1.8 μm. Mobile phase A=ammonium acetate 20 mM, B=Acetonitrile.
(§4) • Flow rate: 0.5 mL/min • T: 20° C. • Detection at UV 383 nm

[3] = Acid media stability (HCl 0.1M), UPLC; details: HCl 0.1M in water/ethanol/isopropanol 50/40/10 (v/v/v), 1 h at 60° C.
Protocol: These solutions could be acidified to check also stability toward acid media for example HCl 0.1M in a water/ethanol/isopropanol 50/40/10 (v/v/v).
as §1, §2, §3, §4

[4] = Photostability of the UV filters in a formula film exposed to a solar simulator (HPLC); details: film about 20 μm, UVA dose 42 J/cm^2
Excerpt: The percentage of residual amount of each UV filter (merocyanine compound and dibenzoylmethane compound) caused by the exposure to a solar simulator of a formula spread in a film having a thickness of about 20 μm was measure. The evaluation was done by HPLC analysis of each UV filter in a solution after extraction of the film, by comparing exposed and non-exposed samples. Solar simulator: Apparatus Oriel […] equipped with a 4 pouces outlet, a 81017 filter and a dichroic mirror. The samples were exposed in horizontal position. The UV exposure was characterized by: • a UVB flux of 0.35-0.45 mW/cm^2 • a UVA flux 16-18 mW/cm^2. Each residual amount of each UV filter was measured by HPLC chromatography with a sensor having diodes bars. About 20 mg of the composition are spread on the surface of a rough melt silica disc. 3 films of composition were exposed to the solar simulator and 3 other films were used as control. The samples were exposed 3 per 3 to the light of the simulator during a sufficient time delivering an UVA dose of 42 J/cm^2. At the end of the exposure, the disc was introduced in a bowl of 600 ml with 10 ml of appropriate solvent (ie generally ethanol). The disc and the bowl were then placed during 5 minutes in an ultrasonic tank.

SMILES | A^1%1 cm at absorption maximum [1] | Absorption maximum λmax [1] | Storage stability 2 months 45° C. [2] | Acid media stability 1 h 60° C. (loss) [3] | % of residual merocyanine compound 4 after UV exposure ([4]; in composition Example 9 (with 2% avobenzone)) [%] | % of residual Avobenzone after UV exposure ([4]; in composition Example 9 (with 1% merocyanine compound 4)) [%]
CCOCCOC(=O)/C(C#N)=C1\C=C(NCCCOC)CCC1 [Compound 25, 2-ethoxyethyl (2Z)-cyano{3-[(3-methoxypropyl)amino]cyclohex-2-en-1-ylidene}ethanoate] | 1947 | 385 | No loss | Loss 4% |  | 
COCCOCCOC(=O)/C(C#N)=C/C=C/N1CCCCC1 [Compound 5] | 2252 | 381 |  |  |  | 
CCCCCCCCOC(=O)/C(C#N)=C/C=C/N(CC)CCO [Compound 18] | 2036 | 385 |  |  |  | 
N#C/C(=C\C=C\N1CCCCC1)C(=O)NCCO [Compound 6] | 2530 | 380 |  |  |  | 
CCCN(/C=C/C=C(\C#N)C(=O)OCC(O)CO)CCC (centres unmarked) [Compound 23] | 2230 | 381 |  |  |  | 
N#C/C(=C\C=C\N1CCOCC1)C(=O)OCC(O)CO (centres unmarked) [Compound 9] | 2414 | 380 |  |  |  | 
CCCCOC(=O)/C(C#N)=C/C=C/N(CCO)CCCC [Compound 12] | 2235 | 381 |  |  |  | 
CCOCCOC(=O)/C(C#N)=C/C=C/N(CCOC)CCOC [Compound 3] | 1965 | 380 |  |  |  | 
N#C/C(=C\C=C\N1CCCCC1)C(=O)OCC(O)CO (centres unmarked) [Compound 7] | 2467 | 381 |  |  |  | 
CCOC(=O)/C(C#N)=C/C=C/N(CCOC)CCOC [Compound 1] | 2283 | 380 |  |  |  | 
CCOCCOC(=O)/C(C#N)=C/C=C/N1CCCCC1 [Compound 4] | 2568 | 381 |  |  | 85 | 
COc1ccc(C(=O)CC(=O)c2ccc(C(C)(C)C)cc2)cc1 [Avobenzone, 4-(tert-butyl)-4′-methoxydibenzoylmethane, reference compound] |  |  |  |  |  | 91
CCOC(=O)/C(C#N)=C1\C=C(NCCCOC)CCC1 [Compound 14] | 2207 | 385 |  |  |  | 
COCCOC(=O)/C(C#N)=C/C=C/N(CCOC)CCOC [Compound 2] | 2046 | 380 |  |  |  | 
CC(C)COC(=O)/C(C#N)=C1\C=C(NCC(C)O)CCC1 (centres unmarked) [Compound 17] | 2083 | 385 |  |  |  | 
CCCCC(CC)CNC1=C/C(=C(/C#N)C(=O)NCCO)CCC1 (centres unmarked) [Compound 16] | 1618 | 386 |  |  |  | 
COCCCNC(=O)/C(C#N)=C1\C=C(NCCCOC)CCC1 [Compound 15] | 1644 | 385 | No loss | Loss 100% |  | 
